For data set [1], the system named is RBCs. The experiment in a line: Detectable transformation ability of synthetic glycolipids (agglutination). It counts as cell-based. To be noted: agglutination with the appropriate antibody. An excerpt:
The synthetic glycolipid must also be able to insert into the membrane and be recognisable to the appropriate antibody for transformation to be detected by agglutination. Initial tests on the molecules were to establish solubility and thus eliminate those molecules that were unsuitable for use in the transformation of cells.

Data set [2] has as its system endometrial cells and embryos. Nature of the data set: Attachment of transformed endometrial cells to modified embryos. The class given is cell-based. The note with it: 15 minutes at 37° C. The method, then:
Modified embryos (BioG-Avidin-BioIgG^B and BioG-Avidin-BioIgM^A) were prepared in accordance with the methods described in the specification accompanying the international application no. PCT/NZ03/00059 (published as WO03/087346).
Two concave glass slides were prepared, one with two wells of synthetic glycolipid Atri-sp-Ad-DOPE (I) inserted endometrial cells and the other with two wells of synthetic glycolipid Btri-sp-Ad-DOPE (VI) inserted endometrial cells.
The embryos were surrounded with endometrial cells. The wells were covered with mineral oil and incubated for 15 minutes at 37° C. Using a wide bore handling pipette each group of embryos were carefully transferred to a fresh drop of M2 media. The embryos were gently washed. The embryos were gently transferred into 2 μL of M2 media on a marked microscope slide. Each drop was overlaid with mineral oil
Under a central plane of focus on an Olympus microscope the number of endometrial cells adhered to the embryos in each group was assessed. The number of cells adhered to each embryo was recorded.

A further data set relates to group O RBCs. Nature of the data set: Diamed agglutination of RBCs transformed at 4° C. with synthetic glycolipids (weak A, B and AB cells). It counts as cell-based, human. The note with it: 0.03 mg/mL, anti-A, time = table row. The procedure:
Transformation of RBCs with synthetic glycolipids Atri-sp-Ad-DOPE (I) and Btri-sp-Ad-DOPE (VI) at 4° C. was then evaluated (Tables 25 to 28). These transformations were directed towards the preparation of cells expressing low levels of A, B or A and B glycotopes (“weak A, B and AB cells”).
For the preparation of weak A and B cells transformation solutions (20 μL, Atri-sp-Ad-DOPE (I) at 0.08, 0.05 and 0.03 mg/mL, and Btri-sp-Ad-DOPE (VI) at 0.6, 0.3, 0.15, 0.08, 0.05 and 0.03 mg/mL) in 1× PBS were mixed with washed, packed group O RBCs (60 μL).
For the preparation of weak AB cells transformation solutions (20 μL, Atrii-sp-Ad-DOPE (I) at 0.07, 0.06 and 0.05 mg/mL, and Btri-sp-Ad-DOPE (VI) at 0.3, and 0.2 mg/mL) in 1× PBS were combined in block titre with washed, packed group O RBCs (60 μL). The combinations were: Atri-sp-Ad-DOPE (I) at 0.07 mg/mL+Btri-sp-Ad-DOPE (VI) at 0.3 mg/mL; Atri-sp-Ad-DOPE (I) at 0.07 mg/mL+Btri-sp-Ad-DOPE (VI) at 0.2 mg/mL; Atri-sp-Ad-DOPE (I) at 0.06 mg/mL+Btri-sp-Ad-DOPE (VI) at 0.3 mg/mL; Atri-sp-Ad-DOPE (I) at 0.06 mg/mL+Btri-sp-Ad-DOPE (VI) at 0.2 mg/mL; Atri-sp-Ad-DOPE (I) at 0.05 mg/mL+Btri-sp-Ad-DOPE (VI) at 0.3 mg/mL; and Atri-sp-Ad-DOPE (I) 0.05+Btri-sp-Ad-DOPE (VI) 0.2 mg/mL.
Cells and transformation solutions were placed in a […] fridge. Pipette mixing was performed at intervals. […]

Data set [3] is described as follows: Solubility of synthetic glycolipids in hot PBS. The class given is physicochemical. The note with it: hot PBS. An excerpt: In the context of this description the phrase “water soluble” means a stable, single phase system is formed when the synthetic molecule construct is contacted with water or saline (such as PBS) in the absence of organic solvents or detergents, and the term “solution” has a corresponding meaning.
For use in the transformation of cells the first criterion that synthetic glycolipids must satisfy is that they are soluble in aqueous solvents, e.g. phosphate buffered saline.
Initial tests on the molecules were to establish solubility and thus eliminate those molecules that were unsuitable for use in the transformation of cells.

The test system of data set [4] is RBCs. The experiment in a line: Insertion efficiency: post-transformation solutions concentrated 20x, Diamed serology. The note with it: post-transformation solution concentrated 20×, from 0.08 mg/mL. The class given is cell-based. The procedure:
In addition, the post-transformation solutions were concentrated 20× and compared in parallel with the transformation solutions of known concentration. Only the post-transformation solutions derived from the 0.08 mg/mL Atri-sp-Ad-DOPE (I) and 0.6 mg/mL Btri-sp-Ad-DOPE (VI) solutions were tested.
Post-transformation solutions (20 μL) were dialysed (pore size 500 Da) against de-ionised water for 2 days. The samples were left to dry in a fumehood for 10 days. At the end of this time they were transferred into a rotavapor flask and set on the rotavapor to rotate under vacuum with no heat overnight. Samples were dried in a water bath at 40° C. and washed over into smaller vessels with chloroform-methanol 2:1 leaving significant amounts of dried cellular material. The chloroform-methanol 2:1 washings were dried down, washed over again into test-tubes with chloroform-methanol 2:1 and dried down. These samples were redissolved in 1 mL of 1× PBS and used for transformation experiments. The cellular material in the bottom of the flasks was washed out with water into another set of tubes.
The post-transformation solutions (from Atri-sp-Ad-DOPE (I) at 0.08 mg/mL and Btri-sp-Ad-DOPE (VI) at 0.6 mg/mL, 20 μL) were added to washed, packed RBCs (60 μL). […]

Molecules are shown by their SMILES.

Results on 1 compound are retold here after patent US10858384B2, “Synthetic molecule constructs” (KODE BIOTECH LIMITED, priority 2004, dated 2020).

`CCCCCCCC/C=C\CCCCCCCC(=O)OC[C@H](COP(=O)(O)OCCNC(=O)CCCCC(=O)NCCCO[C@@H]1O[C@H](CO)[C@H](O)[C@H](O[C@H]2O[C@H](CO)[C@H](O)[C@H](O)[C@H]2NC(C)=O)[C@H]1O[C@@H]1O[C@@H](C)[C@@H](O)[C@@H](O)[C@@H]1O)OC(=O)CCCCCCC/C=C\CCCCCCCC` [Atri-sp-Ad-DOPE (I)]: the Detectable transformation ability entry in the data set on RBCs [1] was “Yes”. Further, the “Average number of endometrial cells attached to modified embryos” value is 2.3 in data set [2] (embryos modified with BioG-Avidin-BioIgG^B) and 7.25 in data set [2] (embryos modified with BioG-Avidin-BioIgM^A). The Agglutination score in the data set on group O RBCs (unwashed) and in the data set with group O RBCs (washed) was 0 each time. Also, in data set [3], the Water solubility entry was “Yes”. Besides, the “Score (Diamed serology)” value in the data set on RBCs [4] worked out at 0.
